Reference: publication PMC7265429, “Characterization of a new small-molecule inhibitor of HDAC6 in glioblastoma” (Cell Death & Disease, 2020)

How the values were obtained:
[1] = system: U87-MG cells; experiment: Cell viability in combined treatments with TMZ; type: cell-based; settings: Homo sapiens, U-87 MG, 100 μM TMZ, 72 h, read-out: cell viability, TMZ alone
Method: (§1) Glioma-cell lines were seeded at a density of 1.5 × 10^3 cells/well in 96-well plates, with six replicates per condition. […] Cell viability was determined by MTT assay at 72 h after treatment. For this, MTT (3-(4,5-dimethyl-2-thiazolyl)-2,5-diphenyl-2H-tetrazolium bromide) reagent was added and, after a 3 h incubation at 37 °C and 5% CO2, media was removed and the formed crystals were resuspended in DMSO. Plates were measured at 570 nm using a spectrophotometer. Results were analyzed by GraphPad Prism software and IC50 values were calculated.

[2] = system: patient-derived GNS179 stem cells; experiment: Dose-response MTT cell viability assay, GNS179; type: cell-based; settings: Homo sapiens, 72 h, Fig. 2d
Method: as §1

[3] = system: acetyl-α-tubulin (HDAC6 main target) in U251-MG cells; experiment: Western blot of acetyl-α-tubulin and cleaved PARP in U251-MG; type: cell-based, human; settings: 10 nM, 48 h
Method: Immunoblots were performed following standard procedures. […] Detection was performed by chemiluminiscence using NOVEX ECL Chemi Substrate (ThermoFisher).

[4] = system: U87-MG cells; experiment: Dose-response MTT cell viability assay, U87-MG; type: cell-based; settings: Homo sapiens, U-87 MG, 72 h, Fig. 2d
Method: as §1

[5] = system: patient-derived GNS166 stem cells; experiment: Dose-response MTT cell viability assay, GNS166; type: cell-based; settings: Homo sapiens, 72 h, Fig. 2d
Method: as §1

[6] = system: U251-MG cells; experiment: Dose-response MTT cell viability assay, U251-MG; type: cell-based; settings: Homo sapiens, U-251, 72 h, Fig. 2d
Method: as §1

[7] = system: A172 cells; experiment: Dose-response MTT cell viability assay, A172; type: cell-based; settings: Homo sapiens, A 172, 72 h, Fig. 2d
Method: as §1

[8] = system: U373-MG cells; experiment: Dose-response MTT cell viability assay, U373-MG; type: cell-based; settings: Homo sapiens, 72 h, Fig. 2d
Method: as §1

[9] = system: T98-G cells; experiment: Dose-response MTT cell viability assay, T98-G; type: cell-based; settings: Homo sapiens, T98G, 72 h, Fig. 2d
Method: as §1

SMILES | viability at 100 µM [1] | IC50 [2] | α-tubulin hyperacetylation [3] | IC50 [4] | IC50 [5] | IC50 [6] | IC50 [7] | IC50 [8] | IC50 [9]
Cn1nnc2c(C(N)=O)ncn2c1=O [TMZ, temozolomide] | 85% |  |  |  |  |  |  |  | 
CN1CCc2c(c3ccccc3n2Cc2ccc(C(=O)NO)cc2)C1 [Tubastatin A] |  | 175 µM | did not | 23.7 µM | 26.4 µM | 26.3 µM | 52.5 µM | 13.2 µM | 104 µM
